Reference: publication PMC8155809 (The Journal of General Physiology, 2021)
Read-outs that look alike come from different tables or passages of the source.

Key:
human TREK-2 = molecular target: T1, human TREK-2 (Homo sapiens, UniProt P57789); assay: Macroscopic TREK-2 currents in giant excised patches from Xenopus oocytes; type: cell-based
T1 construct: expressed in transfected cells; host or cells: Xenopus laevis oocytes injected with in vitro transcribed mRNA (pFAW vector)
T1 sequence (P57789 1-543 isoform P57789-4): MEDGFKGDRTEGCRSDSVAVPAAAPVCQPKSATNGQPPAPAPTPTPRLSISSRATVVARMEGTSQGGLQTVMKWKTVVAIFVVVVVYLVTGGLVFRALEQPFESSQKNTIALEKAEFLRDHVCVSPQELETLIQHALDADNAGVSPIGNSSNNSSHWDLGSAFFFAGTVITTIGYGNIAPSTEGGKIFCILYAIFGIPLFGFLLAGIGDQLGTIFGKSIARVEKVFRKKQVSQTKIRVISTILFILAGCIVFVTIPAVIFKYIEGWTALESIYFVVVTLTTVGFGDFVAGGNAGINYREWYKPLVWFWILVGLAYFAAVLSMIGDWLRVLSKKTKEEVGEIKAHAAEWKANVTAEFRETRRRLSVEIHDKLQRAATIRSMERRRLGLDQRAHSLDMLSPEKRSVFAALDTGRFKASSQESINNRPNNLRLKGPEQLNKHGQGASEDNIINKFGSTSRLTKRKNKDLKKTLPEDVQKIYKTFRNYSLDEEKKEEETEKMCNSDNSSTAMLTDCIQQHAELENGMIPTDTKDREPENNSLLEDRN
Protocol: (§1) Full-length human TREK-2 isoform 3 (NCBI accession no. NP_612191) was used throughout this study and was subcloned into the pFAW vector for expression in oocytes. The truncated construct used to generate protein (TREK-2ΔN/ΔC) is identical to that used previously to obtain crystal structures ([Dong et al., 2015]); it contains a deletion of 71 residues at the N terminus and 213 residues at the C terminus. […] Desamino chloro-fluoxetine (Toronto Research Chemicals) was dissolved in chloroform and diluted to working concentrations on the day of experimenting (maximum final concentration was 0.01%).
Oocytes were prepared for injection of mRNA by collagenase digestion followed by manual defolliculation and stored in ND96 solution that contained (in mM) 96 NaCl, 2 KCl, 1.8 CaCl2, 1 MgCl2, and 10 HEPES (pH 7.4) and was supplemented with 2.5 mM sodium pyruvate 50 µg/ml gentamycin, 50 µg/ml tetracycline, 50 µg/ml ciprofloxacin, and 100 µg/ml amikacin. Cells were injected with 1–4 ng mRNA up to 4 d after isolation. In vitro transcription of mRNA was done using the Amplicap SP6 Kit (Cambio). Experiments were performed 12–24 h after injection at room temperature (22°C unless otherwise indicated). For measurement and comparison of basal whole-cell currents, oocytes were injected with 4 ng RNA and recorded exactly 24 h after injection.
(§2) For currents recorded in Xenopus laevis oocytes, giant-patch electrodes were pulled from thick-walled borosilicate glass and polished to give pipette resistances of ∼0.3–0.5 MΩ when filled with patch solution. Pipette solution contained (in mM) 116 NMDG, 4 KCl, 1 MgCl2, 3.6 CaCl2, and 10 HEPES (pH 7.4), while the bath solution contained (in mM) 120 KCl, 1 NaCl, 2 EGTA, and 10 HEPES (pH 7.3). Patches were perfused via a gravity-flow perfusion system and a HEKA EPC 10 USB single computer–controlled amplifier was used and currents recorded using a Patchmaster v2 × 90.5 (HEKA Electronics), filtered at 1 kHz, and sampled at 10 kHz. For currents recorded in HEK293 cells, patch electrodes were pulled from thick-walled borosilicate glass and polished to give pipette resistances of ∼3–5 MΩ when filled with patch solution. The currents were recorded from excised patches with both intracellular and extracellular solution containing 200 mM KCl and 10 mM HEPES (pH 6.0 with KOH). Patches were perfused via a gravity-flow perfusion system. Data were acquired with pClamp and recorded using an Axopatch 200B (Molecular Devices), filtered at 5 kHz, and sampled at 200 kHz. Single-channel currents were analyzed in an identical manner to those obtained from bilayers (see above).
The macroscopic concentration–inhibition relationships in Figs. 1 and 2 were fitted with a modified Hill equation:
I/I0=a+1−a/1+([X]/IC50)^h, (1) where I and IO are the currents in the presence and absence of inhibitor, respectively, [X] is the concentration of inhibitor, IC50 is the inhibitor concentration at which the inhibition is half maximal, h is the Hill coefficient, and a is the fraction of unblockable current; a = 0, except where indicated in the legend to Fig. 1.
The macroscopic concentration–activation relationships in Fig. 1 E were fitted with a modified Hill equation: I/I0=a+(1−a)([X]/IC50)^h/1+([X]/IC50)^h, (2) where I and IO are the currents in the presence and absence of agonist, respectively, [X] is the concentration of agonist, IC50 is the agonist concentration at which the activation is half maximal, h is the Hill coefficient, and a is the fraction of initial current.

WT TREK-2 = molecular target: T2, WT TREK-2 (Homo sapiens, UniProt P57789); assay: Single-channel recordings of WT TREK-2 in excised patches from HEK293 cells; type: cell-based
T2 construct: full-length WT TREK-2 channels, we examined its effects on the mean open time of TREK-2 channels expressed in HEK293 cells; expressed in transfected cells; host or cells: HEK293 cells, transient transfection with pcDNA3
T2 sequence (P57789 1-543 isoform P57789-4): T1 sequence (P57789 1-543 isoform P57789-4)
Protocol: as §1
HEK293 cells were cultured in DMEM (Sigma) containing 10% FBS (Life Technologies), 3 mM glucose, and 2 mM glutamine at 37°C in a humidified atmosphere of 5% CO2/[…] at 37°C. Cells were transiently transfected with 0.2 µg channel pcDNA3 per dish using FuGENE 6 according to the manufacturer’s instructions. Cells were used 1–2 d after transfection.
as §2

[1] = +40 mV, in the presence of 80 µM TPA

h (Hill coefficient), NFx inhibition (human TREK-2; 0 mV, Fig. S4): 0.72
h (Hill coefficient), NFx inhibition (human TREK-2; +40 mV, Fig. S4): 0.74
h (Hill coefficient), NFx inhibition (human TREK-2; +40 mV, NFx on its own, Fig. 1E): 1.0
a (fraction of unblockable current) (human TREK-2; [1]): 0.05
h (Hill coefficient), NFx inhibition (human TREK-2; [1]): 1.2
h (Hill coefficient), NFx inhibition (human TREK-2; +40 mV, in the presence of 100 mM TEA): 0.8
h (Hill coefficient), NFx inhibition (human TREK-2; +80 mV, Fig. S4): 0.79
IC50 (human TREK-2; IC50, NFx inhibition of TREK-2 currents, +40 mV, NFx on its own, Fig. 1E): 2700 nM
IC50 (human TREK-2; IC50, NFx inhibition of macroscopic WT TREK-2 currents, 0 mV, Fig. S4): 4200 nM
IC50 (human TREK-2; IC50, NFx inhibition of macroscopic WT TREK-2 currents, +40 mV, Fig. S4): 2000 nM
IC50 (human TREK-2; IC50, NFx inhibition of macroscopic WT TREK-2 currents, +80 mV, Fig. S4): 1400 nM
h (Hill coefficient), NFx inhibition (human TREK-2; NFx on its own, Fig. 2C): 1.7
IC50 (human TREK-2; giant inside-out patches, physiological pH 7.4, NFx alone, read-out: IC50 for channel inhibition): ~3000 nM
h (Hill coefficient), NFx inhibition (human TREK-2; in the presence of 50 µM ML335): 0.8
h (Hill coefficient), NFx inhibition (human TREK-2; in the presence of 1 mM 2-APB): 0.6
mean Po (WT TREK-2; 10 µM NFx in the presence of 100 µM ML335, −40 mV): 0.69 ± 0.2
amplitude ratio of γ (WT TREK-2; 10 µM NFx in the presence of 100 µM ML335 vs ML335 alone, −40 mV): 1.00 ± 0.01
reduction of τo (mean open time) (WT TREK-2; 10 µM NFx, Fig. S6): ~30%
reduction of Po of WT TREK-2 channel (WT TREK-2; 10 µM NFx, no further change in the presence of NFx, as in Fig. S6): 79 ± 0.05%
τo (mean open time) (WT TREK-2; 10 µM NFx, −10 mV): 0.89 ms
reduction in γ (single-channel current amplitude) (WT TREK-2; 10 µM, −40 mV (Fig. 6B)): 11 ± 7%
reduction of channel Po (WT TREK-2; 10 µM, −40 mV (Fig. 6B)): 70 ± 0.03%
SMILES: NCCC(Oc1ccc(C(F)(F)F)cc1)c1ccccc1 (stereo not shown) [NFx, norfluoxetine]
